“And” between values parts separate entries of the source, which are not always exact repeats. Equal values may be shown once. Inconclusive results and toxic doses are left out.
Test system: P388 leukemia ip, CD2F1 mice, survival T/C
Test: NCI In Vivo Anticancer Drug Screen. Data for tumor model P388 Leukemia (intraperitoneal) in CD2F1 (CDF1) mice
Conditions: endpoint: median survival time, higher = longer survival
Outline: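 Mice carrying the transplanted tumor received test compound or vehicle. Survival was recorded in each group, and the value is the treated-group measurement divided by that of the vehicle-treated control group.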

[1] = dose: 50.0 mg/kg/injection, schedule: Q01DX005 (ip), vehicle: saline with Tween-80
[2] = dose: 100.0 mg/kg/injection, schedule: Q01DX005 (ip), vehicle: saline with Tween-80
[3] = dose: 200.0 mg/kg/injection, schedule: Q01DX005 (ip), vehicle: saline with Tween-80
[4] = dose: 60.0 mg/kg/injection, schedule: Q01DX005 (ip), vehicle: saline with Tween-80
[5] = dose: 120.0 mg/kg/injection, schedule: Q01DX005 (ip), vehicle: saline with Tween-80
[6] = dose: 60.0 mg/kg/injection, schedule: Q01DX005 (ip), vehicle: saline
[7] = dose: 120.0 mg/kg/injection, schedule: Q01DX005 (ip), vehicle: saline
[8] = dose: 240.0 mg/kg/injection, schedule: Q01DX005 (ip), vehicle: saline
[9] = dose: 12.5 mg/kg/injection, schedule: Q01DX009 (ip), vehicle: saline with Tween-80
[10] = dose: 25.0 mg/kg/injection, schedule: Q01DX009 (ip), vehicle: saline with Tween-80
[11] = dose: 50.0 mg/kg/injection, schedule: Q01DX009 (ip), vehicle: saline with Tween-80
[12] = dose: 100.0 mg/kg/injection, schedule: Q01DX009 (ip), vehicle: saline with Tween-80
[13] = dose: 50.0 mg/kg/injection, schedule: Q01DX009 (ip), vehicle: Klucel (hydroxypropylcellulose) (HPC)
[14] = dose: 100.0 mg/kg/injection, schedule: Q01DX009 (ip), vehicle: Klucel (hydroxypropylcellulose) (HPC)
[15] = dose: 200.0 mg/kg/injection, schedule: Q01DX009 (ip), vehicle: Klucel (hydroxypropylcellulose) (HPC)

Compound: COc1cc2c(cc1C(C)c1ccc(OC(C)C)cc1)OCO2 (stereo unspecified)
- T/C (dose: 25.0 mg/kg/injection, schedule: Q01DX005 (ip), vehicle: saline with Tween-80): 103 % of control
- T/C [1]: 98 % of control
- T/C [2]: 100 % of control
- T/C [3]: 98 % of control

Compound: O=C(O)CC1(C(=O)O)CCC(O)CC1 (stereo unspecified)
- T/C (dose: 50.0 mg/kg/injection, schedule: Q01DX009 (ip), vehicle: saline): 100 % of control
- T/C (dose: 100.0 mg/kg/injection, schedule: Q01DX009 (ip), vehicle: saline): 107 % of control
- T/C (dose: 200.0 mg/kg/injection, schedule: Q01DX009 (ip), vehicle: saline): 100 % of control

Compound: O=C(Nc1cccc2c1C(O)c1ccccc1-2)C(Cl)Cl (stereo unspecified)
- T/C [4]: 97 % of control
- T/C [5]: 98 % of control
- T/C (dose: 240.0 mg/kg/injection, schedule: Q01DX005 (ip), vehicle: saline with Tween-80): 104 % of control

Compound: CCc1c(NCCCl)c(C(=O)NCCCl)c2nc3ccccc3n2c1NCCCl
- T/C (dose: 3.75 mg/kg/injection, schedule: Q01DX005 (ip), vehicle: saline with Tween-80): 100 % of control
- T/C (dose: 7.5 mg/kg/injection, schedule: Q01DX005 (ip), vehicle: saline with Tween-80): 106 % of control
- T/C (dose: 15.0 mg/kg/injection, schedule: Q01DX005 (ip), vehicle: saline with Tween-80): 108 % of control

Compound: N#Cc1nc(CC(=O)/C=C/c2ccccc2)c(CC(=O)/C=C/c2ccccc2)nc1C#N
- T/C [6]: 103 % of control
- T/C [7]: 103 % of control
- T/C [8]: 112 % of control

Compound: CCc1cc(CN2CCN(CCO)CC2)c(O)c(CN2CCN(CCO)CC2)c1
- T/C [6]: 102 % of control
- T/C [7]: 97 % of control
- T/C [8]: 99 % of control

Compound: CCOC(=O)Nc1cc(N(C)CC(O)c2ccccc2)c(N)c(N)n1 (stereo unspecified)
- T/C (dose: 50.0 mg/kg/injection, schedule: Q01DX001 (ip), vehicle: saline with Tween-80): 104 % of control
- T/C (dose: 100.0 mg/kg/injection, schedule: Q01DX001 (ip), vehicle: saline with Tween-80): 94 % of control
- T/C (dose: 200.0 mg/kg/injection, schedule: Q01DX001 (ip), vehicle: saline with Tween-80): 94 % of control

Compound: O=C(Nc1ccc(CSc2ccc(Cl)cc2)o1)N1CCOCC1
- T/C [1]: 107 % of control
- T/C [2]: 99 % of control
- T/C [3]: 98 % of control

Compound: O=C(NNC(=O)c1cccnc1)Nc1cccc(Cl)c1Cl
- T/C [9]: 104 % of control
- T/C [10]: 100 % of control
- T/C [11]: 95 % of control

Compound: N/C(CCSc1ccccc1N=Cc1ccccc1O)=N/O
- T/C (dose: 12.5 mg/kg/injection, schedule: Q01DX009 (ip), vehicle: olive oil, sesame oil, peanut oil): 102 % of control
- T/C (dose: 25.0 mg/kg/injection, schedule: Q01DX009 (ip), vehicle: olive oil, sesame oil, peanut oil): 104 % of control
- T/C (dose: 50.0 mg/kg/injection, schedule: Q01DX009 (ip), vehicle: olive oil, sesame oil, peanut oil): 104 % of control

Compound: Cc1cc(C)c2c(=O)n(-c3ccccc3C)c(=S)n(-c3ccccc3C)c2n1
- T/C [4]: 100 % of control
- T/C [5]: 86 % of control

Compound: CC(C)COCSCC(NC(=O)CNC(=O)C(Cc1ccccc1)NC(=O)CNC(=O)C(CSC(c1ccccc1)(c1ccccc1)c1ccccc1)NC(c1ccccc1)(c1ccccc1)c1ccccc1)C(=O)O (stereo unspecified)
- T/C (dose: 15.0 mg/kg/injection, schedule: Q01DX005 (ip), vehicle: Klucel (hydroxypropylcellulose) (HPC)): 97 % of control
- T/C (dose: 30.0 mg/kg/injection, schedule: Q01DX005 (ip), vehicle: Klucel (hydroxypropylcellulose) (HPC)): 96 % of control
- T/C (dose: 60.0 mg/kg/injection, schedule: Q01DX005 (ip), vehicle: Klucel (hydroxypropylcellulose) (HPC)): 88 % of control and 94 % of control

Compound: O=C(CCl)NC(Cc1cccc(F)c1)C(=O)O (stereo unspecified)
- T/C (dose: 1.56 mg/kg/injection, schedule: Q01DX009 (ip), vehicle: saline): 97 % of control
- T/C (dose: 3.12 mg/kg/injection, schedule: Q01DX009 (ip), vehicle: saline): 97 % of control
- T/C (dose: 6.25 mg/kg/injection, schedule: Q01DX009 (ip), vehicle: saline): 100 % of control and 96 % of control

Compound: CS(=O)CC(=N\O)/C(CS(C)=O)=N\O (stereo unspecified)
- T/C [6]: 104 % of control
- T/C [7]: 108 % of control
- T/C [8]: 103 % of control

Compound: OC1CCCSc2ccccc21 (stereo unspecified)
- T/C [10]: 100 % of control and 95 % of control
- T/C (dose: 50.0 mg/kg/injection, schedule: Q01DX009 (ip), vehicle: saline + alcohol): 99 % of control
- T/C [11]: 100 % of control and 97 % of control
- T/C (dose: 100.0 mg/kg/injection, schedule: Q01DX009 (ip), vehicle: saline + alcohol): 96 % of control
- T/C [12]: 98 % of control
- T/C (dose: 200.0 mg/kg/injection, schedule: Q01DX009 (ip), vehicle: saline + alcohol): 105 % of control
- T/C (dose: 200.0 mg/kg/injection, schedule: Q01DX009 (ip), vehicle: saline with Tween-80): 118 % of control
- T/C (dose: 400.0 mg/kg/injection, schedule: Q01DX009 (ip), vehicle: saline + alcohol): 103 % of control

Compound: Cc1csc(NC(=O)Nc2ccc(F)cc2[N+](=O)[O-])n1
- T/C (dose: 25.0 mg/kg/injection, schedule: Q01DX009 (ip), vehicle: Klucel (hydroxypropylcellulose) (HPC)): 106 % of control
- T/C [13]: 97 % of control
- T/C [11]: 105 % of control
- T/C [14]: 100 % of control
- T/C [12]: 94 % of control
- T/C [15]: 95 % of control

Compound: CC(=O)Oc1c(C)c(O)c(C(C)=O)c2c1C1(C)C(=O)C(C(C)=O)=C(O)C=C1O2 (stereo unspecified)
- T/C (dose: 6.25 mg/kg/injection, schedule: Q01DX009 (ip), vehicle: gum acacia): 104 % of control and 107 % of control
- T/C (dose: 12.5 mg/kg/injection, schedule: Q01DX009 (ip), vehicle: gum acacia): 101 % of control and 106 % of control
- T/C (dose: 25.0 mg/kg/injection, schedule: Q01DX009 (ip), vehicle: gum acacia): 101 % of control and 110 % of control
- T/C (dose: 50.0 mg/kg/injection, schedule: Q01DX009 (ip), vehicle: gum acacia): 100 % of control and 104 % of control
- T/C (dose: 100.0 mg/kg/injection, schedule: Q01DX009 (ip), vehicle: gum acacia): 108 % of control and 110 % of control
- T/C (dose: 200.0 mg/kg/injection, schedule: Q01DX009 (ip), vehicle: gum acacia): 113 % of control and 119 % of control

Compound: C1CCC2(CC1)SSC1(CCCCC1)S2
- T/C (dose: 100.0 mg/kg/injection, schedule: Q04DX003 (ip), vehicle: other): 109 % of control
- T/C (dose: 200.0 mg/kg/injection, schedule: Q04DX003 (ip), vehicle: other): 109 % of control
- T/C (dose: 400.0 mg/kg/injection, schedule: Q04DX003 (ip), vehicle: other): 113 % of control

Compound: CN(C)c1ccc(N=Nc2ccc([As](=O)(O)O)cc2)cc1
- T/C (dose: 0.5 mg/kg/injection, schedule: Q01DX009 (ip), vehicle: saline with Tween-80): 100 % of control
- T/C (dose: 1.0 mg/kg/injection, schedule: Q01DX009 (ip), vehicle: saline with Tween-80): 95 % of control

Compound: CCOC(=O)C(Cc1ccc(N(CCCl)CCCl)cc1)NC(=O)CNC(C)=O (stereo unspecified)
- T/C (dose: 0.5 mg/kg/injection, schedule: Q04DX003 (ip), vehicle: saline with Tween-80): 113 % of control
- T/C (dose: 1.0 mg/kg/injection, schedule: Q04DX003 (ip), vehicle: saline with Tween-80): 104 % of control
- T/C [9]: 177 % of control
- T/C (dose: 12.5 mg/kg/injection, schedule: Q04DX003 (ip), vehicle: saline): 165 % of control
- T/C [10]: 268 % of control
- T/C (dose: 33.0 mg/kg/injection, schedule: Q04DX003 (ip), vehicle: saline with Tween-80): 113 % of control
- T/C (dose: 50.0 mg/kg/injection, schedule: Q04DX003 (ip), vehicle: saline with Tween-80): 90 % of control

Compound: NCC(N)Cn1ccnc1 (stereo unspecified)
- T/C (dose: 50.0 mg/kg/injection, schedule: Q04DX003 (ip), vehicle: saline): 93 % of control
- T/C (dose: 100.0 mg/kg/injection, schedule: Q04DX003 (ip), vehicle: saline): 94 % of control
- T/C (dose: 200.0 mg/kg/injection, schedule: Q04DX003 (ip), vehicle: saline): 95 % of control

Compound: CSc1nc(C(N)=O)c(N)c(=O)[nH]1
- T/C [13]: 109 % of control
- T/C [14]: 110 % of control
- T/C [15]: 117 % of control

Compound: CCn1c2ccccc2c2cc(N=Nc3cc(C(C)C)c(O)cc3C)ccc21
- T/C (dose: 100.0 mg/kg/injection, schedule: Q04DX003 (ip), vehicle: saline with Tween-80): 93 % of control
- T/C (dose: 200.0 mg/kg/injection, schedule: Q04DX003 (ip), vehicle: saline with Tween-80): 102 % of control
- T/C (dose: 400.0 mg/kg/injection, schedule: Q04DX003 (ip), vehicle: saline with Tween-80): 102 % of control

Compound: CN(C)c1nc(O)c(N=O)c(=O)[nH]1
- T/C (dose: 50.0 mg/kg/injection, schedule: Q04DX002 (ip), vehicle: suspension in saline): 100 % of control
- T/C (dose: 100.0 mg/kg/injection, schedule: Q04DX002 (ip), vehicle: suspension in saline): 107 % of control
- T/C (dose: 200.0 mg/kg/injection, schedule: Q04DX002 (ip), vehicle: suspension in saline): 108 % of control
